Patent publication US20040191203A1, “Cosmetic or dermatological composition comprising n-acylaminoamide derivatives” (priority 2001, published 2004)

Experiments:
[1] = test system: surviving UVA irradiated human skins (8 J/cm^2); test: activity on surviving UVA irradiated human skins, morphometry of elastic fibres and collagen; details: UVA 8 J/cm^2 + 5 μl of compound at 0.2% in ethanol every two days; 7 days, 37° C.; four donors
Description: The activity of the compound in example 2 has been evaluated on surviving UVA irradiated human skins (8 J/cm^2). Fragments of normal human skin, originating from four different donors, are placed in inserts positioned in culture wells. Some antibiotic supplemented culture medium is added in the bottom of the wells. A passage occurs through slow diffusion between both compartments by means of a porous membrane (pore size: 12 μm). The culture medium is renewed every three days. On the skin fragments, every two days, are added 5 μl of the compound to be tested, previously put in a solution at 0.2% in ethanol. The skins are kept surviving for 7 days at 37° C. The skins are irradiated once at 8 J/cm^2 at 37° C. (Vilbert-Lourmat lamp, RMX-3W). The elastic fibres are coloured in blue using (+) catechin and are morphometrically quantified by computer assisted picture analysis. The surface percentage of average dermis occupied by the elastic fibres was evaluated this way.

[2] = test system: surviving human skins treated by human leukocyte elastase (HLE); test: ex vivo activity on human skin fragments kept surviving 10 days in culture with HLE, elastic fibre morphometry; details: HLE 0.5 μg per ml of medium + 5 μl of compound at 0.2% in ethanol every other day, 37° C., 3 donors
Description: The ex vivo activity of the compound in example 2 has been evaluated on surviving human skins treated by human leukocyte elastase (HLE). Fragments of normal human skin, originating from 3 different donors, are placed in inserts positioned in culture wells. Some antibiotic supplemented culture medium is added in the bottom of the wells. A passage occurs through slow diffusion between both compartments by means of a porous membrane (pore size: 12 μm). The culture medium is renewed every three days. Optionally 0.5 μg of HLE per ml of culture medium are optionally added on the skin fragments. Also are added, every other day, 5 μl of the compound to be tested, previously put in a solution at 0.2% in weight in ethanol. The skins are kept surviving for 10 days at 37° C. The elastic fibres are coloured in blue using (+) catechin and are morphometrically quantified by computer assisted picture analysis. The surface percentage of average dermis occupied by the elastic fibres was evaluated this way.

[3] = test system: surviving human skins treated by human leukocyte elastase (HLE); test: ex vivo activity on fresh cuts of surviving human skins treated by HLE for 2 hours, elastic fibre morphometry; details: 20° C.
Description: The ex vivo activity of the compound in example 2 has been evaluated on surviving human skins treated by human leukocyte elastase (HLE). Fresh cuts from human skins, originating from 2 different donors, are treated for 2 hours, at 20° C., by 20 μl of a buffer solution (pH 7.4) optionally comprising 10 μg/ml of HLE and optionally 0.1% of the compound to be tested, optionally previously put in a solution in ethanol. The elastic fibres are coloured in blue using (+) catechin and are morphometrically quantified by computer assisted picture analysis. The surface percentage of average dermis occupied by the elastic fibres was evaluated this way.

[4] = molecular target: T1, human leukocyte elastase (HLE) (Homo sapiens, UniProt P08246); test: anti-elastase activity relative to human leukocyte elastase, Me-OSAAPV-p-NA substrate, spectrophotometry; assay type: biochemical
T1 sequence (P08246 30-267): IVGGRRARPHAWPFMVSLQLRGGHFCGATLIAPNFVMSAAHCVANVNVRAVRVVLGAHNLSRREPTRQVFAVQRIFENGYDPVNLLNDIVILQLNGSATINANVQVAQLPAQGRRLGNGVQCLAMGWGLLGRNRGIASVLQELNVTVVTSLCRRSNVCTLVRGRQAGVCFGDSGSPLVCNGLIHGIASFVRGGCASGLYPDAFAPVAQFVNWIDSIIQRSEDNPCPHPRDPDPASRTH
Description: The anti-elastase activity of compounds according to the invention has been determined relative to human leukocyte elastase (HLE).
The test is performed as follows. […]
The inhibition % of the control elastase activity is then determined through spectrophotometry.

## CC(=O)N(c1cccc(C(F)(F)F)c1)C(C(=O)NCC(=O)O)C(C)C (centres unmarked) [Compound A, {2-[acetyl-(3-trifluoromethyl-phenyl)-amino]-3-methyl-butyrylamino}acetic acid]
[1]
  Morphometric analysis of the collagen (superficial dermis): 92%
  Morphometric analysis of the elastic fibres (superficial dermis): 6.8%
[2]
  Surface % occupied by the elastic fibres: 7.1%
[3]; Skin 1, HLE 10 μg/ml + 0.1% compound
  Surface % occupied by the elastic fibres: 13.95%
[3]; Skin 2, HLE 10 μg/ml + 0.1% compound
  Surface % occupied by the elastic fibres: 11.85%
[4]; concentration of compound A 0.2%
  Inhibition % of the control elastase activity: 68%
[4]; even in a low amount
  inhibition of the elastase activity (in words): strong inhibition

## CCOC(=O)CNC(=O)C(C(C)C)N(Cc1ccccc1)C(=O)CP(=O)(OCC)OCC (centres unmarked) [Compound B, ethyl (2-{benzyl-[(diéethoxyphosphoryl)-acetyl]-amino}-3-méthylbutyrylamino) acetate]
[4]; compound concentration 0.1%, HLE 40 milli-units per ml, 37° C., 60 minutes
  Inhibition % of the control elastase activity: 17%
